From ChEMBL document CHEMBL2385028, “Augmentation of GABAergic neurotransmission by novel N-(substituted)-2-[4-(substituted)benzylidene]hydrazinecarbothioamides-a potential anticonvulsant approach” (Eur J Med Chem, 2013)
pIC50: −log10 of the molar value. Active and inactive are the calls of the source. The calls are words filed in the database; no cut-off is given here.

How the values were obtained:
physchem = conditions: octanol/phosphate buffer
Mus musculus [1] = assay: Anticonvulsant activity in albino CF-1 mouse assessed as protection against 6 Hz psychomotor seizure at 100 mg/kg, ip after 4 hrs by minimal clonic seizure test; format: functional; conditions: route intraperitoneal
Mus musculus [2] = assay: Anticonvulsant activity in albino CF-1 mouse assessed as protection against 6 Hz psychomotor seizure at 100 mg/kg, ip after […] by minimal clonic seizure test relative to control
Mus musculus [3] = assay: Anticonvulsant activity in albino CF-1 mouse at 300 mg/kg, ip assessed as protection against maximal electroshock-induced seizures in half or more animals after 2 hrs; format: functional, organism-based; parameters: dose 300 mg/kg
Mus musculus [4] = assay: Anticonvulsant activity in albino CF-1 mouse at 300 mg/kg, ip assessed as protection against maximal electroshock-induced seizures in half or more animals after 0.5 hrs; format: functional, organism-based; parameters: dose 300 mg/kg
Mus musculus [5] = assay: Anticonvulsant activity in albino CF-1 mouse at 300 mg/kg, ip assessed as protection against maximal electroshock-induced seizures in half or more animals after 4 hrs; format: functional, organism-based; parameters: dose 300 mg/kg
Mus musculus [6] = assay: Anticonvulsant activity in albino CF-1 mouse assessed as protection against subcutaneous metrazole-induced seizures in half or more animals at 300 mg/kg, ip after 4 hrs; format: functional, organism-based; parameters: dose 300 mg/kg
Mus musculus [7] = assay: Anticonvulsant activity in ip dosed albino CF-1 mouse assessed as protection against subcutaneous metrazole-induced seizures in half or more animals after 0.5 hrs; format: functional; conditions: albino CF-1, 0.5 h, read-out: MED
Mus musculus [8] = assay: Anticonvulsant activity in albino CF-1 mouse assessed as protection against 6 Hz psychomotor seizure at 100 mg/kg, ip after 0.5 hrs by minimal clonic seizure test relative to control; format: functional; conditions: route intraperitoneal
[9] = Inhibition of voltage-dependent calcium channel subunit alpha-2/delta gabapentin binding site (unknown origin); parameters: species or system Homo sapiens
Rattus norvegicus [10] = assay: Effect on GABA levels in Wistar rat cerebellum at 30 mg/kg, ip after 2 hrs measured per 100 mg tissue; format: functional; conditions: route intraperitoneal
Mus musculus [11] = assay: Anticonvulsant activity in albino CF-1 mouse assessed as protection against 6 Hz psychomotor seizure at 100 mg/kg, ip after 1 hr by minimal clonic seizure test relative to control; format: functional; conditions: route intraperitoneal
Rattus norvegicus [12] = assay: Effect on GABA levels in Wistar rat midbrain at 30 mg/kg, ip after 2 hrs measured per 100 mg tissue; format: functional; conditions: route intraperitoneal
Mus musculus [13] = assay: Anticonvulsant activity in ip dosed albino CF-1 mouse assessed as protection against maximal electroshock-induced seizures in half or more animals after 4 hrs; format: functional; conditions: albino CF-1, ip, read-out: MED
Rattus norvegicus [14] = assay: Effect on GABA levels in Wistar rat medulla oblongata at 30 mg/kg, ip after 2 hrs measured per 100 mg tissue; format: functional; conditions: route intraperitoneal
[15] = Neuroprotective activity in hippocampal slices (unknown origin) assessed as protection against kainic acid-induced cell death by propidium-iodide staining-based fluorescence assay; format: functional, tissue-based; conditions: Hippocampus
Mus musculus [16] = assay: Anticonvulsant activity in albino CF-1 mouse assessed as protection against subcutaneous metrazole-induced seizures in half or more animals at 300 mg/kg, ip after 0.5 hrs; format: functional, organism-based; parameters: dose 300 mg/kg
Rattus norvegicus [17] = assay: Anticonvulsant activity in albino Sprague-Dawley rat assessed as protection against pilocarpine-induced status epilepticus at 600 mg/kg, ip administered prior to pilocarpine-challenge; format: functional, organism-based; parameters: dose 600 mg/kg
Rattus norvegicus [18] = assay: Effect on GABA levels in Wistar rat olfactory lobe at 30 mg/kg, ip after 2 hrs measured per 100 mg tissue; format: functional; conditions: route intraperitoneal
Mus musculus [19] = assay: Anticonvulsant activity in ip dosed albino CF-1 mouse assessed as protection against 6 Hz psychomotor seizure after 4 hrs by minimal clonic seizure test; format: functional; conditions: albino CF-1, ip
Rattus norvegicus [20] = assay: Neurotoxicity in albino Sprague-Dawley rat assessed as motor impairment up to 600 mg/kg, ip measured for 4 hrs; format: toxicity, organism-based; parameters: dose 600 mg/kg, route intraperitoneal; conditions: in vivo
Mus musculus [21] = assay: Anticonvulsant activity in albino CF-1 mouse at 100 mg/kg, ip assessed as protection against maximal electroshock-induced seizures in half or more animals after 4 hrs relative to control; format: functional; conditions: route intraperitoneal
[22] = Neuroprotective activity in hippocampal slices (unknown origin) assessed as protection against NMDA-induced cell death by propidium-iodide staining-based fluorescence assay; format: functional, tissue-based; conditions: Hippocampus
Mus musculus [23] = assay: Anticonvulsant activity in ip dosed albino CF-1 mouse assessed as protection against maximal electroshock-induced seizures in half or more animals after 2 hrs; format: functional; conditions: albino CF-1, ip, read-out: MED
Mus musculus [24] = assay: Anticonvulsant activity in ip dosed albino CF-1 mouse assessed as protection against maximal electroshock-induced seizures in half or more animals after 0.5 hrs; format: functional; conditions: albino CF-1, ip, read-out: MED

Work on `S=C(N/N=C/c1ccc(Oc2ccc3c(c2)OCO3)cc1)Nc1ccccc1` yielded a logP at 24 h (physchem) of 4.8.
With `COc1ccc(NC(=S)N/N=C/c2ccc(Oc3ccc(F)cc3)cc2)cc1` the logP at 24 h (physchem) was 5.09, the Activity (Mus musculus [1]) was 25% and the Activity (Mus musculus [2]) was “inactive”.
`Cc1ccc(NC(=S)N/N=C/c2ccc(Oc3ccc([N+](=O)[O-])cc3)cc2)cc1` showed a logP at 24 h (physchem) of 5.23.
For `Cc1ccc(Oc2ccc(/C=N/NC(=S)NC3CCCCC3)cc2)cc1`, the logP at 24 h (physchem) was 6.17.
In the case of `CCCC(CCC)C(=O)[O-].[Na+]` [VALPROATE SODIUM], the Activity (Mus musculus [3]) was “inactive”, the Activity (Mus musculus [4]) was “inactive” and the Activity (Mus musculus [5]) was “inactive”. For the same molecule, the Activity (Mus musculus [6]) was “inactive” and the minimal effective dose (Mus musculus [7]) was 300 mg/kg.
`S=C(N/N=C/c1ccc(Oc2ccccc2)cc1)Nc1ccccc1` showed a logP at 24 h (physchem) of 4.9.
For `S=C(N/N=C/c1ccc(Oc2ccc3c(c2)OCO3)cc1)NC1CCCCC1`, the logP at 24 h (physchem) was 5.56.
Molecule `Cc1ccc(NC(=S)N/N=C/c2ccc(Oc3ccc(Br)cc3)cc2)cc1` has a logP at 24 h (physchem) of 6.23.
For `Cc1ccc(NC(=S)N/N=C/c2ccc(Oc3ccc(F)cc3)cc2)cc1`, the logP at 24 h (physchem) was 5.48.
`COc1ccc(NC(=S)N/N=C/c2ccc(Oc3ccc4ccccc4c3)cc2)cc1` gave a logP at 24 h (physchem) of 6.11.
In the case of `COc1ccc(NC(=S)N/N=C/c2ccc(Oc3ccc(Cl)c(C)c3)cc2)cc1`, the logP at 24 h (physchem) was 6.03 and the Activity (Mus musculus [2]) was “inactive”.
With `S=C(N/N=C/c1ccc(Oc2ccc(Br)cc2)cc1)Nc1ccccc1` the logP at 24 h (physchem) was 5.62 and the Activity (Mus musculus [2]) was “inactive”.
In the case of `Cc1ccc(NC(=S)N/N=C/c2ccc(Oc3ccccc3)cc2)cc1`, the Activity (Mus musculus [8]) was 50%, the logP at 24 h (physchem) was 5.28 and the Activity (Mus musculus [2]) was “inactive”.
For `Cc1ccc(NC(=S)N/N=C/c2ccc(Oc3ccc4c(c3)OCO4)cc2)cc1`, the logP at 24 h (physchem) was 5.34.
With `S=C(N/N=C/c1ccc(Oc2ccc(Br)cc2)cc1)NC1CCCCC1` the logP at 24 h (physchem) was 6.36 and the Activity (Mus musculus [2]) was “inactive”.
Molecule `COc1ccc(NC(=S)N/N=C/c2ccc(Oc3ccc4c(c3)OCO4)cc2)cc1` has a logP at 24 h (physchem) of 4.9.
`COc1ccc(NC(=S)N/N=C/c2ccc(Oc3ccc([N+](=O)[O-])cc3)cc2)cc1` showed a logP at 24 h (physchem) of 4.9.
With `S=C(N/N=C/c1ccc(Oc2ccc(Cl)cc2)cc1)NC1CCCCC1` the Activity (Rattus norvegicus [10]) was 24.43 mg, the Activity (Mus musculus [8]) was 75% and the Activity (Mus musculus [3]) was “inactive”. The Activity (Mus musculus [4]) was “inactive”, the Activity (Mus musculus [11]) was 75% and the Activity (Rattus norvegicus [12]) was 51.76 mg. The minimal effective dose (Mus musculus [13]) was 100 mg/kg, the Activity (Rattus norvegicus [14]) was 47.24 mg and the Activity [15] was “inactive”. The Activity (Mus musculus [16]) was “inactive”, the Activity (Mus musculus [6]) was “inactive” and the logP at 24 h (physchem) was 6.44. The Activity (Rattus norvegicus [17]) was “inactive”, the Activity (Mus musculus [2]) was “inactive” and the Activity (Rattus norvegicus [18]) was 14.81 mg. The ED50 (Mus musculus [19]) was > 100 mg/kg, the Activity (Rattus norvegicus [20]) was “Non-toxic” and the Activity (Mus musculus [21]) was 100%. For the same molecule, the Activity [22] was “inactive”.
With `O=C1NC(=O)C(c2ccccc2)(c2ccccc2)N1` [PHENYTOIN] the minimal effective dose (Mus musculus [23]) was 30 mg/kg, the minimal effective dose (Mus musculus [13]) was 30 mg/kg and the Activity (Mus musculus [16]) was “inactive”. The Activity (Mus musculus [6]) was “inactive” and the minimal effective dose (Mus musculus [24]) was 30 mg/kg.
